Series [1] has as its system NaIO3 induced dry AMD rat model. Description: NaIO3 induced dry AMD rat model, c-wave of ERG. It counts as in vivo. The conditions noted are these: 1% eye drops 3 times a day, 35 mg/kg NaIO3, BN rats. As for the experimental part:
A total of thirty 8-week-old male Brown-Norway (BN) rats were randomly divided into 3 groups, 10 rats in normal group, 10 rats in NaIO3 group and 10 rats in (II)+NaIO3 group. Control group was instilled with solvent (2-hydroxypropyl-β-cyclodextrin, Sigma-Aldrich) alone without NaIO3 injection. NaIO3 group was instilled with solvent plus 35 mg/kg NaIO3 injection through hypoglossal vein; whereas (II)+NaIO3 group was instilled with 1% (II) eye drops plus 35 mg/kg NaIO3 injection. Both eyes of all rats were instilled with 1 drop for 3 times a day for 1 week before and 4 weeks after NaIO3 injection. At the end of 2 and 4 weeks, RPE function was measured with c-wave of ERG.
BN rats were dark adapted for 2 hours, and then anesthetized with ketamine 35 mg/kg plus xylazine 5 mg/kg i.m, Half of the initial dose was given each 1 hour thereafter. Pupils of all rats were dilated with one drop each of 1% atropine, and 2.5% phenylephrine. Before recording, one drop of 0.5% tetracaine was given for surface anesthesia. All rats were kept warm during ERG measurement. DC-ERG recording methods developed by Peachey were followed. […] Data were analyzed by iWORX LabScribe Data Recording Software (iWorxOCB Sciences, Dover, N.H.). […]

Series [2] relates to ARPE-19 cells. Description: t-BHP-induced injury in ARPE-19 cells (MTT). It counts as cell-based, human. The settings on record: 12 hours. As for the experimental part:
(§1) ARPE-19 cells were grown in DMEM/F12 medium supplemented with 10% FBS, 100 units/ml penicillin G, and 100 μg/ml streptomycin sulfate. HUVECs were grown in vascular cell basal medium supplemented with endothelial cell growth kit. Cells were incubated in a humidified incubator at 37° C. under 5% CO2 and 95% air.
(§2) MTT assay was used to measure the viability of ARPE-19 cells and HUVECs. 2×10^5 ARPE-19 cells or 5×10^4 HUVECs were seeded in 96-well plates (100 μl/well) and allowed to grow overnight. Negative control was prepared by adding 100 μl medium without cells. The cells were then treated with fresh medium with a compound of Formula (II) (“(II)”) (0.03, 0.1, 0.3, 1, 3 and 10 μg/ml) and/or oxidants (NaIO3, H2O2, t-BHP and NaN3) for 12, 24, or 72 hours (200 μl/well). The vehicle control group was treated with vehicle. 20 μl MTT (5 mg/ml) was added to wells, and incubated for another 4 h. After incubation, the medium was discarded and 100 μl DMSO was added to solubilize formazan produced from MTT by the viable cells. Absorbance was measured at 570 nm using a microplate reader (Bio-Rad Laboratories, Inc., CA). Cells viability was calculated according to the following formula: Viability of cells (%)=(absorbance in tested sample−absorbance in negative control)/(absorbance in vehicle control−absorbance in negative control)×100%.

Series [3] has as its system ARPE-19 cells. The series is described as follows: NaIO3-induced injury in ARPE-19 cells (MTT). It counts as cell-based, human. The settings on record: 72 h. On the procedure:
as §1, §2

Series [4] deals with HUVECs. The series is described as follows: H2O2-induced injury in HUVECs (MTT). The conditions noted are these: 24 hours; for enhancement of H2O2-induced injury in HUVECs: 10 μg/ml compound. It counts as cell-based, human. As for the experimental part:
as §1, §2

The test system of series [5] is HUVECs. Description: t-BHP-induced injury in HUVECs (MTT). It counts as cell-based, human. The conditions noted are these: 12 hours. On the procedure:
as §1, §2

Molecules are shown by their SMILES.

As to `CC(C)=CCC/C(C)=C/Cc1c([C@@H]2CC(=O)c3c(cc(O)c(CC=C(C)C)c3O)O2)ccc(O)c1O` [Formula (II)], the “c-wave of ERG in NaIO3-treated rats” value in series [1] is “markedly reverse”. In addition, the “reversal of NaIO3 induced dry AMD model (c-wave of ERG)” value in series [1] turned out to be 4 times. The “effect on t-BHP-induced injury in ARPE-19 cells” value in the series on ARPE-19 cells [2] is on record as “significantly reversed”. Besides, in the series with ARPE-19 cells [3] (30 μg/ml NaIO3, 0.03, 1, 3 and 10 μg/ml compound, P<0.05), the “effect on viability in NaIO3-induced injury in ARPE-19 cells” value is on record as “significantly reversed”. Also, the “reversal of viability in NaIO3-induced injury in ARPE-19 cells” value with ARPE-19 cells [3] (100 μg/ml NaIO3, 10 μg/ml compound) turned out to be 24%; in the series on ARPE-19 cells [3] (300 μg/ml NaIO3, 3 μg/ml compound), 7%. The figures for the “enhancement of H2O2-induced injury in HUVECs” value in the series with HUVECs [4] (200 μM H2O2) and with HUVECs [4] (400 μM H2O2) were 63% and 42%, respectively. Further, the “effect on H2O2-induced injury in HUVECs” value with HUVECs [4] (0.3 and 1 μg/ml compound) was “reversed”. Besides, the “enhancement of t-BHP-induced injury in HUVECs” value in the series on HUVECs [5] (50 μM t-BHP, 3 μg/ml compound) was 27%; in the series with HUVECs [5] (50 μM t-BHP, 10 μg/ml compound) it was 71%; in the series on HUVECs [5] (100 μM t-BHP, 3 μg/ml compound), 21%; in the series with HUVECs [5] (100 μM t-BHP, 10 μg/ml compound), 80%; in the series with HUVECs [5] (200 μM t-BHP, 10 μg/ml compound), 76%.

(Values after patent US9370503B1, “Compounds for treating ocular diseases” (priority 2015, dated 2016).)
